According to PubChem BioAssay AID2060486 (Molecular Pharmacology Branch, DTP, NCI, 2025):
pIC50: −log10 of the molar value.

Test system: IGROV1 complex spheroids (HUVEC, MSC), viability % test/control
Assay: Anticancer human tumor IGROV1 cell line growth inhibition [GQUAD];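 further: spheroids exposed to compounds for 7 days before readout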;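 on viability, T/C: 100% = DMSO vehicle control viability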
Conditions: for pIC50: curve of first compound; for viability, T/C: stronger effect = lower value
How it was run: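 Viability of tumor cells grown as complex spheroids with endothelial and stromal cells, exposed to drug combinations. Top concentration at or near clinical Cmax (else 10 microM), diluted in half-log increments.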

[1] = second compound 0.0316 µM, first compound 0.0316 µM
[2] = second compound 0.0316 µM, first compound 0.1 µM
[3] = second compound 0.0316 µM, first compound 0.316 µM
[4] = second compound 0.0316 µM, first compound 1 µM
[5] = second compound 0.0316 µM, first compound 3.16 µM
[6] = second compound 0.0316 µM, first compound 10 µM
[7] = second compound 0.1 µM, first compound 0.0316 µM
[8] = second compound 0.1 µM, first compound 0.1 µM
[9] = second compound 0.1 µM, first compound 0.316 µM
[10] = second compound 0.1 µM, first compound 1 µM
[11] = second compound 0.1 µM, first compound 3.16 µM
[12] = second compound 0.1 µM, first compound 10 µM
[13] = second compound 0.316 µM, first compound 0.0316 µM
[14] = second compound 0.316 µM, first compound 0.1 µM
[15] = second compound 0.316 µM, first compound 0.316 µM
[16] = second compound 0.316 µM, first compound 1 µM
[17] = second compound 0.316 µM, first compound 3.16 µM
[18] = second compound 0.316 µM, first compound 10 µM
[19] = second compound 1 µM, first compound 0.0316 µM
[20] = second compound 1 µM, first compound 0.1 µM
[21] = second compound 1 µM, first compound 0.316 µM
[22] = second compound 1 µM, first compound 1 µM
[23] = second compound 1 µM, first compound 3.16 µM
[24] = second compound 1 µM, first compound 10 µM
[25] = second compound 3.16 µM, first compound 0.0316 µM
[26] = second compound 3.16 µM, first compound 0.1 µM
[27] = second compound 3.16 µM, first compound 0.316 µM
[28] = second compound 3.16 µM, first compound 1 µM
[29] = second compound 3.16 µM, first compound 3.16 µM
[30] = second compound 3.16 µM, first compound 10 µM
[31] = second compound 10 µM, first compound 0.0316 µM
[32] = second compound 10 µM, first compound 0.1 µM
[33] = second compound 10 µM, first compound 0.316 µM
[34] = second compound 10 µM, first compound 1 µM
[35] = second compound 10 µM, first compound 3.16 µM
[36] = second compound 10 µM, first compound 10 µM

Which results are given for `Cc1cccc(N(C)C(=O)C2C(O)CCN2c2nc(C)cc(C(F)(F)F)c2C#N)c1` (centres undefined) + CN(C)c1ccc(Nc2c3ccc(NC(=O)CCN4CCCC4)cc3nc3cc(NC(=O)CCN4CCCC4)ccc23)cc1?
pIC50 (second compound 0.0316 µM): < 5.00; pIC50 (second compound 0.1 µM): < 5.00; pIC50 (second compound 0.316 µM): < 5.00; pIC50 (second compound 1 µM): < 5.00; pIC50 (second compound 3.16 µM): 5.26; pIC50 (second compound 10 µM): > 7.50; viability, T/C [1]: 101%; viability, T/C [2]: 75.8%; viability, T/C [3]: 85.2%; viability, T/C [4]: 77.5%; viability, T/C [5]: 92.5%; viability, T/C [6]: 97.1%; viability, T/C [7]: 93.9%; viability, T/C [8]: 83.2%; viability, T/C [9]: 86.9%; viability, T/C [10]: 79.9%; viability, T/C [11]: 95.5%; viability, T/C [12]: 93.1%; viability, T/C [13]: 99.1%; viability, T/C [14]: 79.5%; viability, T/C [15]: 88.5%; viability, T/C [16]: 70.6%; viability, T/C [17]: 88.9%; viability, T/C [18]: 96.2%; viability, T/C [19]: 86.2%; viability, T/C [20]: 90.6%; viability, T/C [21]: 71%; viability, T/C [22]: 84.5%; viability, T/C [23]: 89.3%; viability, T/C [24]: 84.7%; viability, T/C [25]: 83.1%; viability, T/C [26]: 85.2%; viability, T/C [27]: 82.2%; viability, T/C [28]: 64%; viability, T/C [29]: 71%; viability, T/C [30]: 33.9%; viability, T/C [31]: 43.5%; viability, T/C [32]: 50.3%; viability, T/C [33]: 34.3%; viability, T/C [34]: 35%; viability, T/C [35]: 25.7%; viability, T/C [36]: 11.7%

`COc1ccc([C@@H](O)c2cc(-c3ncnc4cc(N5CCOCC5)ccc34)c(F)cc2Cl)nn1` + Cc1cnc(CNC(=O)c2c(=O)c3ccc(N4CCCN(C)CC4)nc3n3c2sc2ccccc23)cn1 was tested. Which pIC50 (second compound 0.0316 µM) did it give?
The pIC50 was 6.71.

What about the pIC50 (second compound 0.1 µM) of the same compound?
Its pIC50 is > 7.50.

What about the pIC50 (second compound 0.316 µM) of the same compound?
Its pIC50 is > 7.50.

And the pIC50 (second compound 1 µM)?
Its pIC50 is > 7.50.

And the pIC50 (second compound 3.16 µM)?
Its pIC50 is > 7.50.

What about the pIC50 (second compound 10 µM) of the same compound?
The pIC50 was > 7.50.

And the viability, T/C [1]?
Its viability, T/C is 62.4%.

And the viability, T/C [2]?
Its viability, T/C is 64.7%.

What about the viability, T/C [3] of the same compound?
The viability, T/C was 40.7%.

What about the viability, T/C [4] of the same compound?
The viability, T/C was 11.1%.

And the viability, T/C [5]?
The viability, T/C was 5.18%.

And the viability, T/C [6]?
The viability, T/C was 5.46%.

And the viability, T/C [7]?
Its viability, T/C is 30.9%.

And the viability, T/C [8]?
The viability, T/C was 34.5%.

And the viability, T/C [9]?
The viability, T/C was 18.7%.

What about the viability, T/C [10] of the same compound?
The viability, T/C was 7.37%.

And the viability, T/C [11]?
The viability, T/C was 4.79%.

What about the viability, T/C [12] of the same compound?
Its viability, T/C is 3.15%.

And the viability, T/C [13]?
The viability, T/C was 25.7%.

And the viability, T/C [14]?
Its viability, T/C is 25.2%.

And the viability, T/C [15]?
Its viability, T/C is 14.1%.

What about the viability, T/C [16] of the same compound?
The viability, T/C was 6.16%.

And the viability, T/C [17]?
Its viability, T/C is 4.16%.

What about the viability, T/C [18] of the same compound?
Its viability, T/C is 3.4%.

And the viability, T/C [19]?
Its viability, T/C is 19.7%.

What about the viability, T/C [20] of the same compound?
Its viability, T/C is 17.8%.

And the viability, T/C [21]?
The viability, T/C was 16.1%.

And the viability, T/C [22]?
The viability, T/C was 6.86%.

And the viability, T/C [23]?
Its viability, T/C is 4.58%.

What about the viability, T/C [24] of the same compound?
The viability, T/C was 2.36%.

And the viability, T/C [25]?
The viability, T/C was 12%.

What about the viability, T/C [26] of the same compound?
Its viability, T/C is 9.89%.

What about the viability, T/C [27] of the same compound?
Its viability, T/C is 8.1%.

And the viability, T/C [28]?
Its viability, T/C is 4.31%.

And the viability, T/C [29]?
Its viability, T/C is 3.47%.

What about the viability, T/C [30] of the same compound?
Its viability, T/C is 1.18%.

And the viability, T/C [31]?
The viability, T/C was 9.31%.

And the viability, T/C [32]?
Its viability, T/C is 9.19%.

What about the viability, T/C [33] of the same compound?
The viability, T/C was 9.26%.

What about the viability, T/C [34] of the same compound?
Its viability, T/C is 4.56%.

And the viability, T/C [35]?
Its viability, T/C is 2.94%.

And the viability, T/C [36]?
Its viability, T/C is 1.32%.
